The values that follow come from US7772241B2, “Variolin derivatives and their use as antitumor agents” (Pharma Mar S.A., priority 2001, dated 2010).

The structures appear in SMILES notation. Read-outs that look alike come from different tables or passages of the source.

What is called GI50 is the concentration that inhibits growth by half.

In data set [1] the test system is HT-29. As to the kind of experiment: Inhibition of cells growth by colorimetric (SRB) assay, HT-29. Conditions: for GI50 / CC50: Homo sapiens, HT-29, 48 h; for TGI HT-29 / HT-29 TGI: SRB assay, 48 hours exposure. The essentials:
(§1)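 Human tumour cells seeded at 5×10^3/well in RPMI 1640 10% FBS, attached 18 h, then exposed 48 h to samples at 10 to 10^−8 μg/ml in DMSO/EtOH/PBS (0.5:0.5:99). Growth read by SRB staining after TCA fixation, OD 490 nm, triplicate wells; GI, TGI and LC derived.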
Background: In SRB staining, fixed cells bind dye roughly in proportion to their protein.

The test system of data set [2] is HMEC1. In words: Inhibition of cells growth by colorimetric (SRB) assay, HMEC1. The settings on record: for GI50: Homo sapiens, HMEC-1, 48 h, read-out: GI50 H-MEC-1, SRB assay, 48 hours exposure; for TGI H-MEC-1: SRB assay, 48 hours exposure, in M (unit assumed).
Test in data set [3]: as above
Conditions: human, HMEC1 cells, LC50 H-MEC-1, SRB assay, 48 hours exposure.

In data set [4] the test system is A-549. In words: Inhibition of cells growth by colorimetric (SRB) assay, A-549. The settings on record: for GI50 / CC50: Homo sapiens, A549, 48 h; for GI50: read-out: GI50 A-549, SRB assay, 48 hours exposure; for TGI A-549 / A-549 TGI: SRB assay, 48 hours exposure. In a few lines:
as §1

[5] abbreviates: read-out: GI50 HT-29, SRB assay, 48 hours exposure.
Setting [6] is: read-out: LC50 HT-29, SRB assay, 48 hours exposure.
Setting [7] is: read-out: LC50 A-549, SRB assay, 48 hours exposure.
The mark [8] stands for this setting: read-out: HT-29 GI50, SRB assay, 48 hours exposure.
The mark [9] stands for this setting: read-out: HT-29 LC50, SRB assay, 48 hours exposure.
The mark [10] stands for this setting: read-out: A-549 LC50, SRB assay, 48 hours exposure.

For the compound `CSc1nccc(-c2c3cc(Cl)cnc3n3c(SC)nccc23)n1` [Compound 47], the GI50 is 20.4 µM in data set [1] (setting [5]), 26.7 µM in data set [2] and 17.2 µM in data set [4]. In addition, the CC50 in data set [1] (setting [6]) and in data set [4] (setting [7]) was 26.7 µM each time. Besides, the “TGI HT-29” value in data set [1] is listed as 2.67E−05. The “TGI H-MEC-1” value in data set [2] is on record as 2.67E−05. For the same compound, the CC50 at 48 h in data set [3] came out at 26.7 µM. Besides, the “TGI A-549” value in data set [4] came out at 2.67E−05.
As to `CSc1nccc(-c2c3cc(F)c(Cl)nc3n3c(SC)nccc23)n1` [Compound 48], the GI50 in data set [1] (setting [5]), in data set [2] and in data set [4] was 25.5 µM throughout. The CC50 in data set [1] (setting [6]) and in data set [4] (setting [7]) was 25.5 µM each time. The “TGI HT-29” value in data set [1] came to 2.55E−05. Moreover, in data set [2], the “TGI H-MEC-1” value is reported as 2.55E−05. The compound also yielded a CC50 at 48 h in data set [3] of 25.5 µM. In addition, the “TGI A-549” value in data set [4] is on record as 2.55E−05.
In the case of `COc1cccc(-c2c3cccnc3n3c(SC)nccc23)c1` [Compound 57], the 50% growth inhibitory concentration (GI50) in data set [1] (setting [8]) worked out at 31.1 µM; in data set [2] it was 31.1 µM; in data set [4] it was 22.5 µM. The CC50 in data set [1] (setting [9]) and in data set [4] (setting [10]) was 31.1 µM throughout. Moreover, in data set [1], the “HT-29 TGI” value was found to be 3.11E−05. In addition, the “TGI H-MEC-1” value in data set [2] came out at 3.11E−05. The CC50 at 48 h in data set [3] is 31.1 µM. Moreover, the “A-549 TGI” value in data set [4] is recorded as 3.11E−05.
As for `CSc1nccc2c(-c3ccccc3)c3cccnc3n12` [Compound 58], the GI50 in data set [1] (setting [8]), in data set [2] and in data set [4] was no less than 34.3 µM throughout. In addition, the CC50 in data set [1] (setting [9]) and in data set [4] (setting [10]) was no less than 34.3 µM each time. In data set [1], the “HT-29 TGI” value was 3.43E−05. Further, the “TGI H-MEC-1” value in data set [2] amounted to 3.43E−05. In data set [3], the CC50 at 48 h is no less than 34.3 µM. Further, in data set [4], the “A-549 TGI” value is listed as 3.43E−05.
